Test results reported in patent US20230114728A1 (Venatorx Pharmaceuticals, Inc., priority 2019, published 2023).
Converted amounts (≈) assume the structure as drawn.

Assays:
N. gonorrhoeae PBP2 = biological target: T1, N. gonorrhoeae PBP2 (Neisseria gonorrhoeae, UniProt P08149); assay: Bocillin-FL fluorescence polarization competition binding assay, N. gonorrhoeae PBP2; conditions: fluorescence polarization competition binding assay using Bocillin-FL; read-out: N. gonorrhoeae PBP2 Potency
T1 construct: made in house
Text: Example I: Experimental Method for Penicillin-Binding Protein Binding Assays with Bocillin-FL Via Fluorescence Polarization
To determine the ability of boronic acid-based test PBP inhibitors to bind Penicillin Binding Proteins (PBPs), Bocillin-FL (fluorescently-labeled penicillin V; ThermoFisher Scientific) was used in a fluorescence polarization (FP) competition binding assay to assess inhibitor binding to PBP2, PBP3 or PBP4 from Escherichia coli (K12), PBP3 from Pseudomonas aeruginosa (PA01), PBP1a, PBP2 and PBP3 from Acinetobacter baumannii (ATCC 19606), and PBP2 from Neiserria gonorrheae (FA19). PBPs were cloned and purified as described previously (E. coli PBPs, King, D. T, et al., ACS Infectious Diseases 2015, 1, 175-184; P. aeruginosa PBP3, Han et. al., PNAS 2010, 107 (51), 22002-22007; A. baumannii PBPs, Penwell et. al., Antimicrob. Agents Chemother. 2015, 59 (3), 1680-1689; N. gonorrhoeae PBP2, Singh et. al., J Biol. Chem. 2019, 294 (38), 14020-14032). To establish assay conditions for competition binding, enzyme titration/saturation binding experiments were initially performed. Bocillin-FL was prepared at 0.2 μM in a buffer comprised of 50 mM Hepes (pH 8.0), 300 mM NaCl and 5% (v/v) glycerol for reactions with E. coli, P. aeruginosa and N. gonorrhoeae PBPs, and 25 mM Tris (pH 8.0), 200 mM NaCl and 10% (v/v) glycerol and 0.005% (v/v) Tween 20 for reactions with A. baumannii PBPs. Saturation binding was performed by mixing 40 μl of PBP solutions ranging in concentrations from 0-24 μM with 40 μl of the 0.2 μM Bocillin-FL solution, in individual wells of a black 384-well microplate. FP was measured immediately upon mixing (Excitation, 490 nm; Emission, 520 nm; g-factor, 0.96), using a Cytation3 (BioTek) microplate reader and measured continuously for up to 120 minutes. […] The competition binding assay (80 μl final volume) was validated using beta-lactams and PBPs at final concentrations of: 1.5 μM, E. coli PBP3; 0.75 μM, P. aeruginosa PBP3; 1 μM A. baumannii PBP1a; 2.5 μM A. baumannii PBP2; 0.2 μM A. baumannii PBP3; and […] N. gonorrhoeae PBP2. Bocillin-FL was at 0.1 μM (0.05 μM with A. baumannii PBP1a) and beta-lactam concentrations ranged from 0-1000 μM. […] Bocillin-FL was added and the FP immediately measured for up to 60 minutes (90 minutes for E. coli PBP2). […] The beta-lactam potency was reported as the concentration of beta-lactam required to reduce the amount of PBP bound-Bocillin-FL by 50% (EC50). […] Binding assays for boronic acid PBP inhibitors were performed in an identical fashion for the respective PBPs

[1] = tested on: A. baumannii CDC-0045 producing TEM-1D, OXA-23, and OXA-69; assay: Broth microdilution MIC in iron-depleted CAMHB (IDM); assay type: cell-based; conditions: Acinetobacter baumannii, read-out: Minimum Inhibitory Concentration, CDC-0045
P. aeruginosa CDC-0110 = assay: as above; assay type: cell-based; conditions: Pseudomonas aeruginosa, CDC0110, read-out: Minimum Inhibitory Concentration, P. aeruginosa CDC-0110
Description: To determine the ability of test compounds to inhibit the growth bacterial strains under conditions of iron-depletion, classic cell based broth microdilution minimum inhibitory concentration (MIC) assays were employed. MIC assays are performed according to CLSI methods except where otherwise noted (CLSI, 2018 and CLSI, 2019). The reference type strain E. coli ATCC 25922 was used to determine the ability of the PBP inhibitors to inhibit the growth of Enterobacteriaceae. Wild-type P. aeruginosa ATCC 27853, A. baumannii ATCC 17978 and A. baumannii ATCC 19606, along with the hyper-permeable P. aeruginosa ATCC 35151, an engineered efflux pump-compromised strain of P. aeruginosa (ΔmexAB-oprM), and an engineered efflux-pump compromised strain of A. baumannii IL123 (ABΔ3-ARAEcPore) were used to determine the ability of PBP inhibitors to penetrate the outer membrane of P. aeruginosa and A. baumannii and assess antibacterial activity against these important gram-negative organisms.
Briefly, cryo-preserved bacterial cultures of challenge strains are streaked for isolation on appropriate agar medium, in this case cation-adjusted Mueller Hinton agar. Following incubation to allow growth of the colonies, plates are sealed with parafilm and stored refrigerated for up to two weeks. For preparation of assay inoculum and to ensure low variability, at least 5 colonies are picked from the agar plates with an inoculating loop and aseptically transferred to a culture tube containing 3 mL of iron-depleted cation-adjusted Mueller Hinton broth (IDM)—see below for IDM preparation. The broth culture is grown for 3-5 hours at 37° C. with shaking at 200 rpm. Meanwhile, 2-fold serial dilutions of test compounds are conducted in a 96-well plate with a final volume of 75 μL per well at 2-fold the final desired concentration. After the dilution plates are set up the growing cultures are then diluted in a cuvette containing IDM and the optical density is measured at 600 nm. The inoculum is diluted such that 75 μL of this culture in IDM results in a starting bacterial concentration of 2-8×10^5 CFU/mL when added to the dilution plates. The plates are incubated for 16-20 hours for Enterobacteriaceae and Pseudomonas and 20-24 hours for Acinetobacter at 37° C. The MIC values are read visually as the lowest concentration well with no bacterial growth.
Method for Iron-Depleted Cation-Adjusted Mueller Hinton Broth (IDM) Preparation:
• Prepare cation-adjusted Mueller Hinton broth as per the manufacturer's recommendations and autoclave. • Add 100 g/L Chelex 100 resin, cover with foil and incubate with stirring for 2 hours • Remove Chelex 100 resin by filtration with 0.45 μm filter flask • Add the following back to the medium: • CaCl2 dihydrate: 82.5 mg/L • MgCl2 hexahydrate: 94.1 mg/L • ZnSO4: 10 μM • Adjust pH of medium to 7.3 with 5 N HCl • Sterilize using a 0.22 µm filter flask

T1 sequence (P08149 whole entry): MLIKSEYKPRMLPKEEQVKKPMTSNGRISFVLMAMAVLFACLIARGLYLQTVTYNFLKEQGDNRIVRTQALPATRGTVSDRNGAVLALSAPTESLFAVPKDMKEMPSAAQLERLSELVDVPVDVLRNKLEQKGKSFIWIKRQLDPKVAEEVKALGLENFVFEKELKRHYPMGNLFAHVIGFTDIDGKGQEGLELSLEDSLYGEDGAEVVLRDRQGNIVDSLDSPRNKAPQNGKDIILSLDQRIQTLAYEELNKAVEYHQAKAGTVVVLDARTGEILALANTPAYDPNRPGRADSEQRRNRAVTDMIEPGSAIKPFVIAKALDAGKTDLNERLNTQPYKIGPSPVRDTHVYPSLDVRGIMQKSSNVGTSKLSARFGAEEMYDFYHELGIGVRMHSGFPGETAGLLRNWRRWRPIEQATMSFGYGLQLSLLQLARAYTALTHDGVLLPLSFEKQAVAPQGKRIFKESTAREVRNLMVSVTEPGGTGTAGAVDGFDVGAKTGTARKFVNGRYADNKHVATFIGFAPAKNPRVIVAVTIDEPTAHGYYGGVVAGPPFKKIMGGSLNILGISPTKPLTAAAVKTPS

| Structure (SMILES) | EC50 (N. gonorrhoeae PBP2) [µM] | MIC [1] [µg/mL] | MIC (P. aeruginosa CDC-0110) [µg/mL] |
| --- | --- | --- | --- |
| NCCN1CCN(C(=O)N[C@H](C(=O)N[C@H]2Cc3cccc(C(=O)O)c3OB2O)c2ccc(C(=O)O)cc2)C(=O)C1=O (single isomer, unassigned) [Example 83] | < 10 |  |  |
| CCN1CCN(C(=O)NC(C(=O)N[C@H]2Cc3cccc(C(=O)O)c3OB2O)c2cccc(NC(=O)c3ccc(O)c(O)c3Cl)c2)C(=O)C1=O (stereo partly drawn) [Example 73, (3R)-3-(2-(3-(2-chloro-3,4-dihydroxybenzamido)phenyl)-2-(4-ethyl-2,3-dioxopiperazine-1-carboxamido)acetamido)-2-hydroxy-3,4-dihydro-2H-benzo[e][1,2]oxaborinine-8-carboxylic acid] |  | 32 to 64 (≈ 46.1 to 92.2 µM) | 0.5 to 1 (≈ 0.721 to 1.44 µM) |
| CCN1CCN(C(=O)NC(C(=O)N[C@H]2Cc3cccc(C(=O)O)c3OB2O)c2cccc(N)c2)C(=O)C1=O (stereo partly drawn) [Example 72, (3R)-3-(2-(3-aminophenyl)-2-(4-ethyl-2,3-dioxopiperazine-1-carboxamido)acetamido)-2-hydroxy-3,4-dihydro-2H-benzo[e][1,2]oxaborinine-8-carboxylic acid] | < 10 |  |  |
| O=C(O)c1c(F)ccc2c1OB(O)[C@@H](NC(=O)[C@H](NC(=O)N1CCNC1=O)c1c(F)cc(O)c(O)c1Cl)C2 (single isomer, unassigned) [Example 34] |  | 0.25 (≈ 0.451 µM) | 0.5 to 1 (≈ 0.901 to 1.8 µM) |
| CS(=O)(=O)N1CCN(C(=O)NC(C(=O)N[C@H]2Cc3ccc(F)c(C(=O)O)c3OB2O)c2ccc(O)c(O)c2Cl)C1=O (stereo partly drawn) [Example 23, (3R)-3-(2-(2-chloro-3,4-dihydroxyphenyl)-2-(3-(methylsulfonyl)-2-oxoimidazolidine-1-carboxamido)acetamido)-7-fluoro-2-hydroxy-3,4-dihydro-2H-benzo[e][1,2]oxaborinine-8-carboxylic acid] |  | 0.5 to 1 (≈ 0.813 to 1.63 µM) | 2 to 4 (≈ 3.25 to 6.51 µM) |
| CCN1CCN(C(=O)N[C@H](C(=O)N[C@H]2Cc3cccc(C(=O)O)c3OB2O)c2cc(Cl)c(O)cc2Cl)C(=O)C1=O (single isomer, unassigned) [Example 92] | < 10 |  |  |
| CCN1CCN(C(=O)NC(C(=O)N[C@H]2Cc3cccc(C(=O)O)c3OB2O)c2ccc(C(=O)O)c(F)c2)C(=O)C1=O (stereo partly drawn) [Example 31, (3R)-3-(2-(4-carboxy-3-fluorophenyl)-2-(4-ethyl-2,3-dioxopiperazine-1-carboxamido)acetamido)-2-hydroxy-3,4-dihydro-2H-benzo[e][1,2]oxaborinine-8-carboxylic acid] | < 10 |  |  |
| CCN1CCN(C(=O)N[C@@H](C(=O)N[C@H]2Cc3cccc(C(=O)O)c3OB2O)c2cc(Cl)c(O)cc2Cl)C(=O)C1=O (single isomer, unassigned) [Example 91] | < 10 |  |  |
| CCN1CCN(C(=O)NC(C(=O)N[C@H]2Cc3ccc(F)c(C(=O)O)c3OB2O)c2c(F)cc(O)c(O)c2F)C(=O)C1=O (stereo partly drawn) [Example 36, (3R)-3-(2-(2,6-difluoro-3,4-dihydroxyphenyl)-2-(4-ethyl-2,3-dioxopiperazine-1-carboxamido)acetamido)-7-fluoro-2-hydroxy-3,4-dihydro-2H-benzo[e][1,2]oxaborinine-8-carboxylic acid] |  | 0.25 (≈ 0.421 µM) | 0.5 to 1 (≈ 0.841 to 1.68 µM) |
| O=C(O)c1c(F)ccc2c1OB(O)[C@@H](NC(=O)C(NC(=O)N1CCN(CCF)C(=O)C1=O)c1c(F)cc(O)c(O)c1F)C2 (stereo partly drawn) [Example 37, (3R)-3-(2-(2,6-difluoro-3,4-dihydroxyphenyl)-2-(4-(2-fluoroethyl)-2,3-dioxopiperazine-1-carboxamido)acetamido)-7-fluoro-2-hydroxy-3,4-dihydro-2H-benzo[e][1,2]oxaborinine-8-carboxylic acid] |  | 0.5 to 1 (≈ 0.817 to 1.63 µM) | 0.5 to 1 (≈ 0.817 to 1.63 µM) |
| CCN1CCN(C(=O)NC(C(=O)N[C@H]2Cc3cccc(C(=O)O)c3OB2O)c2c(F)cc(O)cc2Cl)C(=O)C1=O (stereo partly drawn) [Example 95, (3R)-3-(2-(2-chloro-6-fluoro-4-hydroxyphenyl)-2-(4-ethyl-2,3-dioxopiperazine-1-carboxamido)acetamido)-2-hydroxy-3,4-dihydro-2H-benzo[e][1,2]oxaborinine-8-carboxylic acid] | < 10 |  |  |
| NCCN1CCN(C(=O)N[C@@H](C(=O)N[C@H]2Cc3cccc(C(=O)O)c3OB2O)c2ccc(C(=O)O)cc2)C(=O)C1=O (single isomer, unassigned) [Example 84] | < 10 |  |  |
| NCCN1CCN(C(=O)NC(C(=O)N[C@H]2Cc3cccc(C(=O)O)c3OB2O)c2c(F)cc(O)cc2Cl)C(=O)C1=O (stereo partly drawn) [Example 94, (3R)-3-(2-(4-(2-aminoethyl)-2,3-dioxopiperazine-1-carboxamido)-2-(2-chloro-6-fluoro-4-hydroxyphenyl)acetamido)-2-hydroxy-3,4-dihydro-2H-benzo[e][1,2]oxaborinine-8-carboxylic acid] | < 10 |  |  |
| CCN1CCN(C(=O)N[C@@H](C(=O)N[C@H]2Cc3cccc(C(=O)O)c3OB2O)c2cc(O)cc(O)c2)C(=O)C1=O (single isomer, unassigned) [Example 82] | < 10 |  |  |
| NCCN1CCN(C(=O)N[C@H](C(=O)N[C@H]2Cc3cccc(C(=O)O)c3OB2O)c2ccc(O)cc2Cl)C(=O)C1=O (single isomer, unassigned) [Example 85] | 10 to 30 |  |  |
| CCN1CCN(C(=O)NC(C(=O)N[C@H]2Cc3cccc(C(=O)O)c3OB2O)c2cccc(O)c2)C(=O)C1=O (stereo partly drawn) [Example 68, (3R)-3-(2-(4-ethyl-2,3-dioxopiperazine-1-carboxamido)-2-(3-hydroxyphenyl)acetamido)-2-hydroxy-3,4-dihydro-2H-benzo[e][1,2]oxaborinine-8-carboxylic acid] | < 10 |  |  |
| CCN1CCN(C(=O)NC(C(=O)N[C@H]2Cc3cccc(C(=O)O)c3OB2O)c2ccc(C(N)=O)c(O)c2)C(=O)C1=O (stereo partly drawn) [Example 45, (3R)-3-(2-(4-carbamoyl-3-hydroxyphenyl)-2-(4-ethyl-2,3-dioxopiperazine-1-carboxamido)acetamido)-2-hydroxy-3,4-dihydro-2H-benzo[e][1,2]oxaborinine-8-carboxylic acid] | < 10 |  |  |
